Assay results reported in US12139472B2, “Inhibitors of advanced glycation end products” (priority 2019, dated 2024).

Test system: CYP3A
Type: in vitro ADME, human
Settings: HLM
Excerpt: Compound 5 (PTG-630 free base) and 7 additional compounds for CYP3A P450 inhibition.
Imidazole (and benzimidazole) containing drugs are ubiquitous in pharmacological practice; however, drug-drug interactions (DDI) have been observed with some imidazole-containing classes, such as the antifungal azoles typified by ketoconazole. It is believed that the imidazole moiety accounts for their ability to inhibit CYP3A, the major DDI enzyme that metabolizes up to 50% of common drugs. The compounds of the disclosure incorporate an imidazole moiety attached to a pyridine ring via the imidazole C-2. They all share an imidazo-hydroxypyridine theme that can bind redox metal ions, while differing in the nature of the X side-chain. The potential of the compounds of the disclosure for DDI was evaluated by screening their inhibition of CYP3A.
Two studies were conducted in human liver microsomes (HLM). Lead candidate PTG-630 was tested using the Eurofins G232 panel (Drug Metab Dispos. 2001 January; 29(1):23-9), where inhibition was measured against seven CYP enzymes; CYP3A4 was tested using two different substrates, midazolam and testosterone. In a second study, inhibition of CYP3A4 (midazolam substrate only) was compared for 8 compounds of interest. The test protocol involved one-point measurements in duplicate, where inhibition was measured at a fixed 10 μM concentration of candidate inhibitors. In all cases, the substrate for each CYP enzyme was at a concentration equal to its specific Km value that was independently obtained from an 8-point dose-response study. Based on the observed value for percent inhibition for each test compound, we calculated of an IC50 assuming a competitive mode of inhibition. If percent inhibition for an inhibitor at a concentration of [I] is denoted by P, then: IC50=[I]*(100−P)/P In the single-point assay, [I] is 10 μM. If measured inhibition is 10%, then IC50=10*(100-10)/10=90 μM. […] As discussed in Lin et al. (J Pharm Sci. 2007 September; 96(9):2485-93; doi: 10.1002/jps.20884), CYP inhibition is broadly interpreted as being “potent” if IC50<1 μM, “moderate” if 1 μM<IC50<10 μM, and “weak” if IC50>10 μM.

## Cc1ncc(CN2CCCCCC2)c(-c2ncc[nH]2)c1O [PTG-670]
midazolam, from one-point % inhibition at 10 μM, IC50=[I]*(100−P)/P
  Estimated IC50: — None
Substrate midazolam at Km, Inhib Conc. 1.0E−05 M
  P % inhib: −1.1%
